As a reminder, the IC50 is the concentration that inhibits the measured activity by half.

The values below come from patent US7265152B2 (ViroPharma Incorporated, priority 2002, dated 2007).

Molecules are shown by their SMILES.

For assay [1], the system named is HCV replicon (BB7 sequence) in Huh-7-Clone A cells. Description: HCV replicon assay: ELISA of NS5A protein in replicon-containing cells (Inhibition of Viral RNA Replication). It is filed as cell-based. As to conditions: Hepatitis C virus; HCV replicon, range of EC50; read-out: Replicon. The method in brief:
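EC50 taken from an 8-point serially diluted dose curve, with NS5A level as read-out: fixed cells probed with primary monoclonal and HRP-conjugated secondary, TMB developed 30 min, OD 650 nm. Compound exposure 72 h in Huh-7-Clone A replicon cells (BB7 sequence).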
(In general: A replicon is a self-replicating genome or part of one, used to study replication in cells.)

Assay [2] has as its target T1, HCV NS5B (Hepatitis C virus genotype 1b, UniProt Q9WMX2).
T1 construct: fusion protein, of which the carboxyl terminal 21 amino acids were removed to enhance its solubility; His tag (GSHHHHHH); made in house; host or cells: E. coli
The experiment in a line: Inhibition of viral RNA-dependent RNA polymerase (RdRp), in vitro biochemical assay. As to conditions: HCV NS5B RdRp, BB7; reported as range class; read-out: HCV pol-BB7 IC50. The arrangement: species or system HCV genotype 1b virus (BB7). The method in brief:
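IC50 values are the concentrations that halve in vitro RNA synthesis by HCV NS5B polymerase. The enzyme was a C-terminally truncated (Δ21), His-tagged genotype 1b (BB7 consensus) protein purified from E. coli.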

In the case of `CNC(=O)c1c(-c2ccc(F)cc2)oc2cc(N3CCOCC3)c(OCc3nsc(Cl)n3)cc12` [Example 206, 5-(5-Chloro-[1,2,4]thiadiazol-3-ylmethoxy)-2-(4-fluoro-phenyl)-6-morpholin-4-yl-benzofuran-3-carboxylic acid methylamide], the EC50 in assay [1] was below 1000 nM. In addition, the IC50 in assay [2] lay in the range of 500 to 5000 nM.
In the case of `CNC(=O)c1c(-c2ccc(F)cc2)oc2cc(N3CCOCC3)c(OCc3nnc(-c4ccc(C)cc4)o3)cc12` [Example 207, 2-(4-Fluoro-phenyl)-6-morpholin-4-yl-5-(5-p-tolyl-[1,3,4]oxadiazol-2-ylmethoxy)-benzofuran-3-carboxylic acid methylamide], in assay [1], the EC50 is below 10000 nM. Moreover, the IC50 in assay [2] lay in the range of 5000 to 30000 nM.
As to `CNC(=O)c1c(-c2ccc(F)cc2)oc2cc(O)c(OC)cc12` [Example 208, 2-(4-Fluoro-phenyl)-6-hydroxy-5-methoxy-benzofuran-3-carboxylic acid methylamide], the EC50 in assay [1] is below 30000 nM. Moreover, the IC50 in assay [2] was in the range of 500 to 5000 nM.
Turning to `CNC(=O)c1c(-c2ccc(F)cc2)oc2cc(N3CCOCC3)c(OCc3nnnn3C)cc12` [Example 209, 2-(4-Fluoro-phenyl)-5-(1-methyl-1H-tetrazol-5-ylmethoxy)-6-morpholin-4-yl-benzofuran-3-carboxylic acid methylamide], the EC50 in assay [1] is below 10000 nM. Besides, the IC50 in assay [2] is 500 to 5000 nM.
Take `CNC(=O)c1c(-c2ccc(F)cc2)oc2cc(N3CCOCC3)c(OCc3cccc(OC)c3)cc12` [Example 210, 2-(4-Fluoro-phenyl)-5-(3-methoxy-benzyloxy)-6-morpholin-4-yl-benzofuran-3-carboxylic acid methylamide]: the EC50 in assay [1] was below 1000 nM. For the same compound, the IC50 in assay [2] is at most 500 nM.
With `CNC(=O)c1c(-c2ccc(F)cc2)oc2cc(OCc3nnnn3C)c(OC)cc12` [Example 211, 2-(4-Fluoro-phenyl)-5-methoxy-6-(1-methyl-1H-tetrazol-5-ylmethoxy)-benzofuran-3-carboxylic acid methylamide], the EC50 in assay [1] is below 1000 nM. For the same compound, in assay [2], the IC50 was at most 500 nM.
Regarding `CNC(=O)c1c(-c2ccc(F)cc2)oc2cc(N3CCOCC3)c(OC(C)c3ccc(F)cc3)cc12` (centres unmarked) [Example 212, 2-(4-Fluoro-phenyl)-5-[1-(4-fluoro-phenyl)-ethoxy]-6-morpholin-4-yl-benzofuran-3-carboxylic acid methylamide], in assay [1], the EC50 was below 1000 nM. Moreover, the IC50 in assay [2] was at most 500 nM.
Regarding `CNC(=O)c1c(-c2ccc(F)cc2)oc2cc(N3CCOCC3)c(OCc3ccc(C#N)cc3)cc12` [Example 213, 5-(4-Cyano-benzyloxy)-2-(4-fluoro-phenyl)-6-morpholin-4-yl-benzofuran-3-carboxylic acid methylamide], the EC50 in assay [1] was below 10000 nM. In assay [2], the IC50 lay in the range of 500 to 5000 nM.
Consider `CNC(=O)c1c(-c2ccc(F)cc2)oc2cc(N3CCOCC3)c(OCc3noc(-c4ccc(OC)cc4)n3)cc12` [Example 214, 2-(4-Fluoro-phenyl)-5-[5-(4-methoxy-phenyl)-[1,2,4]oxadiazol-3-ylmethoxy]-6-morpholin-4-yl-benzofuran-3-carboxylic acid methylamide], for which, in assay [1], the EC50 was below 1000 nM. In assay [2], the IC50 was in the range of 500 to 5000 nM.
Regarding `CNC(=O)c1c(-c2ccc(F)cc2)oc2cc(N3CCOCC3)c(OCC(C)=O)cc12` [Example 215, 2-(4-Fluoro-phenyl)-6-morpholin-4-yl-5-(2-oxo-propoxy)-benzofuran-3-carboxylic acid methylamide], in assay [1], the EC50 is below 10000 nM. Also, the IC50 in assay [2] was 500 to 5000 nM.
As to `CNC(=O)c1c(-c2ccc(F)cc2)oc2cc(N3CCOCC3)c(OCc3nccn3Cc3ccccc3)cc12` [Example 216, 5-(1-Benzyl-1H-imidazol-2-ylmethoxy)-2-(4-fluoro-phenyl)-6-morpholin-4-yl-benzofuran-3-carboxylic acid methylamide], the EC50 in assay [1] was below 1000 nM. Further, in assay [2], the IC50 is at most 500 nM.
As to `CNC(=O)c1c(-c2ccc(F)cc2)oc2cc(N3CCOCC3)c(OCc3c(C)noc3C)cc12` [Example 217, 5-(3,5-Dimethyl-isoxazol-4-ylmethoxy)-2-(4-fluoro-phenyl)-6-morpholin-4-yl-benzofuran-3-carboxylic acid methylamide], in assay [1], the EC50 was below 10000 nM. For the same compound, the IC50 in assay [2] was 500 to 5000 nM.
As for `CNC(=O)c1c(-c2ccc(F)cc2)oc2cc(N3CCOCC3)c(OCc3cc(C)on3)cc12` [Example 218, 2-(4-Fluoro-phenyl)-5-(5-methyl-isoxazol-3-ylmethoxy)-6-morpholin-4-yl-benzofuran-3-carboxylic acid methylamide], the EC50 in assay [1] was below 1000 nM. Also, the IC50 in assay [2] is at most 500 nM.
In the case of `CNC(=O)c1c(-c2ccc(F)cc2)oc2cc(-c3nccs3)c(OC(C)C)cc12` [Example 219, 2-(4-Fluoro-phenyl)-5-isopropoxy-6-thiazol-2-yl-benzofuran-3-carboxylic acid methylamide], the EC50 in assay [1] was below 10000 nM. In addition, the IC50 in assay [2] was at most 500 nM.
For the compound `CNC(=O)c1c(-c2ccc(F)cc2)oc2cc(-c3ccc[nH]3)c(OC(C)C)cc12` [Example 220, 2-(4-Fluoro-phenyl)-5-isopropoxy-6-(1H-pyrrol-2-yl)-benzofuran-3-carboxylic acid methylamide], the EC50 in assay [1] was below 10000 nM. Besides, the IC50 in assay [2] was at most 500 nM.
Turning to `CNC(=O)c1c(-c2ccc(F)cc2)oc2cc(N(C(C)C)S(C)(=O)=O)c(OC)cc12` [Example 221, 2-(4-Fluoro-phenyl)-6-(isopropyl-methanesulfonyl-amino)-5-methoxy-benzofuran-3-carboxylic acid methylamide], the EC50 in assay [1] was below 1000 nM. The IC50 in assay [2] was at most 500 nM.
For `CNC(=O)c1c(-c2ccc(F)cc2)oc2cc(C(C)O)c(OC(C)C)cc12` (centres unmarked) [Example 222, 2-(4-Fluoro-phenyl)-6-(1-hydroxy-ethyl)-5-isopropoxy-benzofuran-3-carboxylic acid methylamide], the EC50 in assay [1] was below 1000 nM. In addition, the IC50 in assay [2] is at most 500 nM.
As to `CNC(=O)c1c(-c2ccc(F)cc2)oc2cc(CN3CCOCC3)c(OC(C)C)cc12` [Example 223, 2-(4-Fluoro-phenyl)-5-isopropoxy-6-morpholin-4-ylmethyl-benzofuran-3-carboxylic acid methylamide], in assay [1], the EC50 was below 10000 nM. In assay [2], the IC50 lay in the range of 5000 to 30000 nM.
For the compound `CNC(=O)c1c(-c2ccc(F)cc2)oc2cc(CO)c(OC(C)C)cc12` [Example 224, 2-(4-Fluoro-phenyl)-6-hydroxymethyl-5-isopropoxy-benzofuran-3-carboxylic acid methylamide], the EC50 in assay [1] is below 10000 nM. Moreover, in assay [2], the IC50 was at most 500 nM.
With `CNC(=O)c1c(-c2ccc(F)cc2)oc2cc(N3CCOCC3)c(OCc3cnc[nH]3)cc12` [Example 225, 2-(4-Fluoro-phenyl)-5-(3H-imidazol-4-ylmethoxy)-6-morpholin-4-yl-benzofuran-3-carboxylic acid methylamide], the EC50 in assay [1] is below 10000 nM. For the same compound, the IC50 in assay [2] is at most 500 nM.
Take `CNC(=O)c1c(-c2ccc(F)cc2)oc2cc(N3CCOCC3)c(OCCOC)cc12` [Example 226, 2-(4-Fluoro-phenyl)-5-(2-methoxy-ethoxy)-6-morpholin-4-yl-benzofuran-3-carboxylic acid methylamide]: the EC50 in assay [1] is below 1000 nM. For the same compound, the IC50 in assay [2] is at most 500 nM.
In the case of `CNC(=O)c1c(-c2ccc(F)cc2)oc2cc(-c3cncs3)c(OC(C)C)cc12` [Example 227, 2-(4-Fluoro-phenyl)-5-isopropoxy-6-thiazol-5-yl-benzofuran-3-carboxylic acid methylamide], in assay [1], the EC50 was below 1000 nM. Moreover, the IC50 in assay [2] was at most 500 nM.
For the compound `CNC(=O)c1c(-c2ccc(F)cc2)oc2cc(N3CCOCC3)c(OCc3nn(C)cc3Cl)cc12` [Example 228, 5-(4-Chloro-1-methyl-1H-pyrazol-3-ylmethoxy)-2-(4-fluoro-phenyl)-6-morpholin-4-yl-benzofuran-3-carboxylic acid methylamide], the EC50 in assay [1] was below 1000 nM. Also, the IC50 in assay [2] was at most 500 nM.
For `CNC(=O)c1c(-c2ccc(F)cc2)oc2cc(N3CCOCC3)c(OC(C)C#N)cc12` (centres unmarked) [Example 229, 5-(Cyano-methyl-methoxy)-2-(4-fluoro-phenyl)-6-morpholin-4-yl-benzofuran-3-carboxylic acid methylamide] the same measures were below 10000 nM and at most 500 nM.
For the compound `CNC(=O)c1c(-c2ccc(F)cc2)oc2cc(-c3ccn[nH]3)c(OC(C)C)cc12` [Example 230, 2-(4-Fluoro-phenyl)-5-isopropoxy-6-(2H-pyrazol-3-yl)-benzofuran-3-carboxylic acid methylamide], the EC50 in assay [1] is below 10000 nM. Moreover, in assay [2], the IC50 was at most 500 nM.
As for `CNC(=O)c1c(-c2ccc(F)cc2)oc2cc(-c3ccnn3C)c(OC(C)C)cc12` [Example 231, 2-(4-Fluoro-phenyl)-5-isopropoxy-6-(2-methyl-2H-pyrazol-3-yl)-benzofuran-3-carboxylic acid methylamide], the EC50 in assay [1] was below 1000 nM. In assay [2], the IC50 was at most 500 nM.
For `CNC(=O)c1c(-c2ccc(F)cc2)oc2cc(-c3ccn(C)n3)c(OC(C)C)cc12` [Example 232, 2-(4-Fluoro-phenyl)-5-isopropoxy-6-(1-methyl-1H-pyrazol-3-yl)-benzofuran-3-carboxylic acid methylamide] the same measures were below 10000 nM and 500 to 5000 nM.
Turning to `CNC(=O)c1c(-c2ccc(F)cc2)oc2cc(-c3cc(C)no3)c(OC(C)C)cc12` [Example 233, 2-(4-Fluoro-phenyl)-5-isopropoxy-6-(3-methyl-isoxazol-5-yl)-benzofuran-3-carboxylic acid methylamide], the EC50 in assay [1] is below 30000 nM. Also, the IC50 in assay [2] is at most 500 nM.
